One assay concerns the target T1, rat CB2 receptor (rCB2) (Rattus norvegicus, UniProt Q9QZN9).
T1 sequence (Q9QZN9 1-360): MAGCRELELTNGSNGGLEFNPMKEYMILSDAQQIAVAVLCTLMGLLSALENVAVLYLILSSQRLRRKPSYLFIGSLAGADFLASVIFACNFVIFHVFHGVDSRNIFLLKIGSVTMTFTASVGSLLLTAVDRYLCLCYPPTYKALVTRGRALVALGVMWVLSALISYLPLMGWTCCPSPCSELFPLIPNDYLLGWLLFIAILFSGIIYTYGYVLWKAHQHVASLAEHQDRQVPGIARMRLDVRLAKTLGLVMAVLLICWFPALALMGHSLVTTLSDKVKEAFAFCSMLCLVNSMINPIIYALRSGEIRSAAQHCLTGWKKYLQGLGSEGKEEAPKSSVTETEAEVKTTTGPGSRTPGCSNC
The assay can be described thus: cell-based. Format: cell-based. Particulars: for +/− RCB2: agonist or inverse agonist at rCB2. In outline:
(§1)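 Readout: LANCE TR-FRET cAMP, back-calculated from a concurrent standard curve and scaled between forskolin-only and forskolin + 1 μM CP55,940 wells. EC50 and intrinsic activity came from four-parameter fits.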

In assay [1] the target is human CB1 receptor (hCB1) (Homo sapiens, UniProt P21554). The assay can be described thus: cell-based. Format: cell-based. The note with it: for +/− HCB1: agonist or inverse agonist at hCB1. In outline:
as §1

[2] abbreviates: groups >100 nM-10 μM and >10 μM, cAMP, CHO-K1 hCB1, read-out: EC50 HCB1.

Structures are written as SMILES. Where two headings read alike, the source gives them in different places.

human CB1 receptor (hCB1), sequence (P21554 whole entry): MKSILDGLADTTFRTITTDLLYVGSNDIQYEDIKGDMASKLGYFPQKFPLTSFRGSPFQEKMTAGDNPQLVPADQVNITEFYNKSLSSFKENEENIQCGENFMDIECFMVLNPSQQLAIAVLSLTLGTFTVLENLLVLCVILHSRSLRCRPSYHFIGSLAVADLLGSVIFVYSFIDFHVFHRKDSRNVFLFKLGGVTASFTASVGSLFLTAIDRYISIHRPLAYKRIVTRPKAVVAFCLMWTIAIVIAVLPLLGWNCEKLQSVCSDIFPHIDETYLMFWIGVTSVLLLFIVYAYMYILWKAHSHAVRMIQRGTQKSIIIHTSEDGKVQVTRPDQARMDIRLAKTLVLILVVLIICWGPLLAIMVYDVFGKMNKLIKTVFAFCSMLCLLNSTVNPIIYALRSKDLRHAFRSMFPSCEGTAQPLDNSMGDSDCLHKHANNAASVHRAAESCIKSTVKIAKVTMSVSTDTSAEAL

By EC50 is commonly meant the concentration giving half of the maximal effect. `CNC(=O)[C@@H](NC(=O)c1nc(-c2cc(C)ccc2Cl)n2c1CN(C)CCC2)C(C)(C)C` [Compound 335, (S)-3-(2-chloro-5-methylphenyl)-N-(3,3-dimethyl-1-(methylamino)-1-oxobutan-2-yl)-8-methyl-6,7,8,9-tetrahydro-5H-imidazo[1,5-a][1,4]diazepine-1-carboxamide]: the half-maximal effective concentration (EC50) at rat CB2 receptor (rCB2) was over 10 µM; in assay [1] it was over 10000 nM.
`CCCNC(=O)N1CCn2c(-c3ccccc3)nc(C(=O)N[C@H](C(=O)NC)C(C)(C)C)c2C1` [Compound 193, (S)-N1-(3,3-dimethyl-1-(methylamino)-1-oxobutan-2-yl)-3-phenyl-N7-propyl-5,6-dihydroimidazo[1,5-a]pyrazine-1,7(8H)-dicarboxamide]: the “+/− RCB2” value on rat CB2 receptor (rCB2) was “−”. Besides, in assay [1], the EC50 is over 10000 nM.
As to `CC12CCC(C1)C(C)(C)C2NC(=O)c1nc(-c2ccccc2)n2c1CN(C(=O)C1CCOC1)CC2` (stereo not shown) [Compound 121, 3-phenyl-7-(tetrahydrofuran-3-carbonyl)-N-(1,3,3-trimethylbicyclo[2.2.1]heptan-2-yl)-5,6,7,8-tetrahydroimidazo[1,5-a]pyrazine-1-carboxamide], the “+/− RCB2” value at rat CB2 receptor (rCB2) is listed as “−”. For the same molecule, the EC50 in assay [1] was over 10000 nM.
`CNC(=O)[C@@H](NC(=O)c1nc(-c2ccc(F)c(C(=O)N3CCOCC3)c2)n2c1CN(C)CCC2)C(C)(C)C` [Compound 389, (S)-N-(3,3-dimethyl-1-(methylamino)-1-oxobutan-2-yl)-3-(4-fluoro-3-(morpholine-4-carbonyl)phenyl)-8-methyl-6,7,8,9-tetrahydro-5H-imidazo[1,5-a][1,4]diazepine-1-carboxamide]: the values for the EC50 (at rat CB2 receptor (rCB2); in assay [1]) were over 10 µM and over 10000 nM, respectively.
As to `CNC(=O)[C@H](Cc1cscn1)NC(=O)c1nc(-c2cc(Cl)c(F)cc2F)n2c1CN(C)CCC2` [Compound 593, (S)-3-(5-chloro-2,4-difluorophenyl)-8-methyl-N-(1-(methylamino)-1-oxo-3-(thiazol-4-yl)propan-2-yl)-6,7,8,9-tetrahydro-5H-imidazo[1,5-a][1,4]diazepine-1-carboxamide], the “+/− RCB2” value at rat CB2 receptor (rCB2) is “+”. In addition, the “+/− HCB1” value in assay [1] is on record as “+”.
Turning to `O=C(NC1CCCCC1)c1nc(-c2ccccc2)n2c1CN(C(=O)C1CC1)CC2` [Compound 136, N-cyclohexyl-7-(cyclopropanecarbonyl)-3-phenyl-5,6,7,8-tetrahydroimidazo[1,5-a]pyrazine-1-carboxamide], the “+/− RCB2” value on rat CB2 receptor (rCB2) is on record as “−”. Besides, the EC50 in assay [1] (setting [2]) is over 10000 nM.
`C=Cc1nc(C(=O)N[C@H](C(=O)NC)C(C)(C)C)c2n1CCN(C)C2` [Compound 266, (S)-N-(3,3-dimethyl-1-(methylamino)-1-oxobutan-2-yl)-7-methyl-3-vinyl-5,6,7,8-tetrahydroimidazo[1,5-a]pyrazine-1-carboxamide]: on rat CB2 receptor (rCB2), the “+/− RCB2” value was “−”. The molecule also returned an EC50 in assay [1] of over 10000 nM.
Consider `CNC(=O)[C@@H](NC(=O)c1nc(-c2ccc(Br)cc2F)n2c1CN(C)CCC2)C(C)(C)C` [Compound 600, (S)-3-(4-bromo-2-fluorophenyl)-N-(3,3-dimethyl-1-(methylamino)-1-oxobutan-2-yl)-8-methyl-6,7,8,9-tetrahydro-5H-imidazo[1,5-a][1,4]diazepine-1-carboxamide], for which the EC50 on rat CB2 receptor (rCB2) is over 10 µM. Besides, the “+/− HCB1” value in assay [1] is “+”.
Turning to `CNC(=O)[C@@H](NC(=O)c1nc(-c2cccc(F)c2)n2c1CN(C)CC2)C(C)(C)C` [Compound 244, (S)-N-(3,3-dimethyl-1-(methylamino)-1-oxobutan-2-yl)-3-(3-fluorophenyl)-7-methyl-5,6,7,8-tetrahydroimidazo[1,5-a]pyrazine-1-carboxamide], the “+/− RCB2” value at rat CB2 receptor (rCB2) is listed as “+”. Moreover, the EC50 in assay [1] was over 10000 nM.
`CCS(=O)(=O)N1CCn2c(-c3ccccc3)nc(C(=O)NCC3CCOCC3)c2C1` [Compound 117, 7-(ethylsulfonyl)-3-phenyl-N-((tetrahydro-2H-pyran-4-yl)methyl)-5,6,7,8-tetrahydroimidazo[1,5-a]pyrazine-1-carboxamide]: on rat CB2 receptor (rCB2), the “+/− RCB2” value was “−”. Also, the EC50 in assay [1] (setting [2]) is over 10000 nM.
For the molecule `CNC(=O)[C@H](CC(C)C)NC(=O)c1nc(-c2ccc(Cl)c(F)c2)n2c1CN(C)CC2` [Compound 277, (S)-3-(4-chloro-3-fluorophenyl)-7-methyl-N-(4-methyl-1-(methylamino)-1-oxopentan-2-yl)-5,6,7,8-tetrahydroimidazo[1,5-a]pyrazine-1-carboxamide], at rat CB2 receptor (rCB2), the “+/− RCB2” value is given as “−”. In assay [1], this molecule gave an EC50 of over 10000 nM.
With `CNC(=O)[C@@H](NC(=O)c1nc(-c2cccc(N(C)C)c2)n2c1CN(C)CCC2)C(C)(C)C` [Compound 382, (S)-N-(3,3-dimethyl-1-(methylamino)-1-oxobutan-2-yl)-3-(3-(dimethylamino)phenyl)-8-methyl-6,7,8,9-tetrahydro-5H-imidazo[1,5-a][1,4]diazepine-1-carboxamide], the “+/− RCB2” value on rat CB2 receptor (rCB2) is reported as “−”. In addition, in assay [1], the EC50 was over 10000 nM.
For `CNC(=O)[C@@H](NC(=O)c1nc(-c2cncnc2)n2c1CNCC2)C(C)(C)C` [Compound 19, (S)-N-(3,3-dimethyl-1-(methylamino)-1-oxobutan-2-yl)-3-(pyrimidin-5-yl)-5,6,7,8-tetrahydroimidazo[1,5-a]pyrazine-1-carboxamide], the EC50 at rat CB2 receptor (rCB2) is over 10 µM; in assay [1], over 10000 nM.
With `CNC(=O)[C@@H](NC(=O)c1nc(-c2cnc(OC)nc2OC)n2c1CN(C)CCC2)C(C)(C)C` [Compound 344, (S)-3-(2,4-dimethoxypyrimidin-5-yl)-N-(3,3-dimethyl-1-(methylamino)-1-oxobutan-2-yl)-8-methyl-6,7,8,9-tetrahydro-5H-imidazo[1,5-a][1,4]diazepine-1-carboxamide], the EC50 on rat CB2 receptor (rCB2) was over 10 µM; in assay [1], over 10000 nM.
In the case of `CNC(=O)[C@H](CC(C)C)NC(=O)c1nc(-c2ccc(Cl)cc2F)n2c1CN(C)CC2` [Compound 276, (S)-3-(4-chloro-2-fluorophenyl)-7-methyl-N-(4-methyl-1-(methylamino)-1-oxopentan-2-yl)-5,6,7,8-tetrahydroimidazo[1,5-a]pyrazine-1-carboxamide], the “+/− RCB2” value at rat CB2 receptor (rCB2) was “−”. The molecule also gave an EC50 in assay [1] of over 10000 nM.
Consider `CC(C)CCNC(=O)c1nc(-c2ccc(Cl)cc2)n2c1CN(C(=O)OC(C)(C)C)CC2` [Compound 33, tert-butyl 3-(4-chlorophenyl)-1-(isopentylcarbamoyl)-5,6-dihydroimidazo[1,5-a]pyrazine-7(8H)-carboxylate], for which the “+/− RCB2” value at rat CB2 receptor (rCB2) is given as “−”. For the same molecule, the EC50 in assay [1] (setting [2]) was over 10000 nM.
`CNC(=O)[C@@H](NC(=O)c1nc(-c2cc(C(F)(F)F)ccc2F)n2c1CN(C)CCC2)C(C)(C)C` [Compound 363, (S)-N-(3,3-dimethyl-1-(methylamino)-1-oxobutan-2-yl)-3-(2-fluoro-5-(trifluoromethyl)phenyl)-8-methyl-6,7,8,9-tetrahydro-5H-imidazo[1,5-a][1,4]diazepine-1-carboxamide]: the “+/− RCB2” value at rat CB2 receptor (rCB2) is “−”. For the same molecule, in assay [1], the EC50 is over 10000 nM.
As to `CNC(=O)[C@@H](NC(=O)c1nc(-c2cccc(F)c2)n2c1CNCC2)C(C)(C)C` [Compound 4, (S)-N-(3,3-dimethyl-1-(methylamino)-1-oxobutan-2-yl)-3-(3-fluorophenyl)-5,6,7,8-tetrahydroimidazo[1,5-a]pyrazine-1-carboxamide], the EC50 at rat CB2 receptor (rCB2) was over 10 µM; in assay [1] it was over 10000 nM.
On to `CC(C)C[C@H](NC(=O)c1nc(C2CCCCC2)n2c1CN(C)CCC2)C(N)=O` [Compound 570, (S)-N-(1-amino-4-methyl-1-oxopentan-2-yl)-3-cyclohexyl-8-methyl-6,7,8,9-tetrahydro-5H-imidazo[1,5-a][1,4]diazepine-1-carboxamide], for which the “+/− RCB2” value at rat CB2 receptor (rCB2) was “+”. In assay [1], the “+/− HCB1” value was “+”.
Turning to `CNC(=O)[C@@H](NC(=O)c1nc(-c2ccccc2)n2c1CN(C(=O)c1ccco1)CC2)C(C)(C)C` [Compound 128, (S)-N-(3,3-dimethyl-1-(methylamino)-1-oxobutan-2-yl)-7-(furan-2-carbonyl)-3-phenyl-5,6,7,8-tetrahydroimidazo[1,5-a]pyrazine-1-carboxamide], the “+/− RCB2” value at rat CB2 receptor (rCB2) was “−”. In assay [1], the EC50 was over 10000 nM.
The like results for `CNC(=O)[C@@H](NC(=O)c1nc(-c2ccccc2)n2c1CNCCC2)C(C)(C)O` [Compound 606, (S)-N-(3-hydroxy-3-methyl-1-(methylamino)-1-oxobutan-2-yl)-3-phenyl-6,7,8,9-tetrahydro-5H-imidazo[1,5-a][1,4]diazepine-1-carboxamide] were, in that order, “+” and over 10000 nM.
The like results for `CNC(=O)[C@@H](NC(=O)c1nc(-c2cccc3ccccc23)n2c1CN(C)CCC2)C(C)(C)C` [Compound 417, (S)-N-(3,3-dimethyl-1-(methylamino)-1-oxobutan-2-yl)-8-methyl-3-(naphthalen-1-yl)-6,7,8,9-tetrahydro-5H-imidazo[1,5-a][1,4]diazepine-1-carboxamide] were, in that order, “+” and over 10000 nM.
As to `O=C(NC1CCCCC1)c1nc(-c2ccccc2)n2c1CN(C(=O)c1ccoc1)CC2` [Compound 138, N-cyclohexyl-7-(furan-3-carbonyl)-3-phenyl-5,6,7,8-tetrahydroimidazo[1,5-a]pyrazine-1-carboxamide], on rat CB2 receptor (rCB2), the “+/− RCB2” value was “−”. Also, the 50% effective concentration (EC50) in assay [1] (setting [2]) was over 10000 nM.

For the origin of these results see US7517874B2 (priority 2007, dated 2009).
